# Source: patent US9132140B2, “Boronic acid derivatives and therapeutic uses thereof” (Rempex Pharmaceuticals, Inc., priority 2013, dated 2015)
# Like-named read-outs stand apart in the source and are kept apart here.
# Columns and labels:
# EA1019 (SHV-5, VIM-1) = assay type: cell-based, Enterobacter aerogenes; conditions: EA1019; alone
# Excerpt: (§1) Several strains simultaneously expressing both class A and class B carbapenemases, which were constructed using conjugation, were also included in the panel.
# [1] = test system: KP1087 (KPC-2, CTX-M-15, SHV-11, TEM-1); assay type: cell-based, Klebsiella pneumoniae; conditions: KP1087; alone
# Excerpt: (§2) The results are present in Table 6.
# (§3) The results are present in Table 7.
# [2] = test system: KP1081 (NDM-1, TEM-1, SHV-11, CMY-6, CTX-M-15); assay type: cell-based, Klebsiella pneumoniae; conditions: KP1081; alone
# Excerpt: as §2, §3
# ECLM1018 (VIM, KPC) = assay type: cell-based, Enterobacter cloacae; conditions: ECLM1018; alone
# Excerpt: as §1
# ECL1082 (VIM-1) = assay type: cell-based, Enterobacter cloacae; conditions: ECL1082; alone
# Excerpt: as §1
# ECLM1017 (VIM, KPC) = assay type: cell-based, Enterobacter cloacae; conditions: ECLM1017; alone
# Excerpt: as §1
# [3] = test system: ECL1057 (NDM-1, TEM-1, CTX-M-15); assay type: cell-based, Enterobacter cloacae; conditions: ECL1057; alone
# Excerpt: as §1
# ECL1045 (VIM-1) = assay type: cell-based, Enterobacter cloacae; conditions: ECL1045; alone
# Excerpt: as §1
# ECLM1015 (NDM, KPC) = assay type: cell-based, Enterobacter cloacae; conditions: ECLM1015; alone
# Excerpt: as §1
# ECL1036 (KPC) = assay type: cell-based, Enterobacter cloacae; conditions: ECL1036; alone
# Excerpt: as §1
# ECLM1019 (VIM, KPC) = assay type: cell-based, Enterobacter cloacae; conditions: ECLM1019; alone
# Excerpt: as §1
# ECLM1014 (NDM, KPC) = assay type: cell-based, Enterobacter cloacae; conditions: ECLM1014; alone
# Excerpt: as §1
# ECL1026 (KPC) = assay type: cell-based, Enterobacter cloacae; conditions: ECL1026; alone
# Excerpt: as §1
# ECL1055 (KPC) = assay type: cell-based, Enterobacter cloacae; conditions: ECL1055; alone
# Excerpt: as §1
# ECLM1013 (NDM, KPC) = assay type: cell-based, Enterobacter cloacae; conditions: ECLM1013; alone
# Excerpt: as §1
# ECLM1016 (NDM, KPC) = assay type: cell-based, Enterobacter cloacae; conditions: ECLM1016; alone
# Excerpt: as §1
# KPM1110 (NDM, KPC) = assay type: cell-based, Klebsiella pneumoniae; conditions: KPM1110; alone
# Excerpt: as §1
# KPM1108 (NDM, KPC) = assay type: cell-based, Klebsiella pneumoniae; conditions: KPM1108; alone
# Excerpt: as §1
# KPM1107 (NDM, KPC) = assay type: cell-based, Klebsiella pneumoniae; conditions: KPM1107; alone
# Excerpt: as §1
# KPM1123 (KPC-2 TEM SHV) = assay type: cell-based, Klebsiella pneumoniae; conditions: KPM1123; alone
# Excerpt: as §1
# KPM1345 (VIM-1 SHV) = assay type: cell-based, Klebsiella pneumoniae; conditions: KPM1345; alone
# Excerpt: as §1
# KPM1122 (NDM, VIM) = assay type: cell-based, Klebsiella pneumoniae; conditions: KPM1122; alone
# Excerpt: as §1
# KP1098 (IMP-26 TEM SHV) = assay type: cell-based, Klebsiella pneumoniae; conditions: KP1098; alone
# Excerpt: as §1
# KP1054 (VIM-1, SHV-11) = assay type: cell-based, Klebsiella pneumoniae; conditions: KP1054; alone
# Excerpt: as §1
# [4] = test system: KPM1346 (NDM-1 TEM SHV CTX-M-15 CMY); assay type: cell-based, Klebsiella pneumoniae; conditions: KPM1346; alone
# Excerpt: as §1
# [5] = test system: KP1084 (KPC-3, SHV-11, TEM-1); assay type: cell-based, Klebsiella pneumoniae; conditions: KP1084; alone
# Excerpt: as §1
# KP1004 (KPC TEM SHV) = assay type: cell-based, Klebsiella pneumoniae; conditions: KP1004; alone
# Excerpt: as §1
# KPM1344 (VIM-1) = assay type: cell-based, Klebsiella pneumoniae; conditions: KPM1344; alone
# Excerpt: as §1
# [6] = test system: KP1081 (NDM-1, TEM-1, SHV-11, CMY-6, CTX-M-15); assay type: cell-based, Klebsiella pneumoniae; conditions: KP1081; alone; remark: listed apart in the source
# Excerpt: as §1
# KPM1111 (NDM, KPC) = assay type: cell-based, Klebsiella pneumoniae; conditions: KPM1111; alone
# Excerpt: as §1
# KPM1097 (NDM, KPC) = assay type: cell-based, Klebsiella pneumoniae; conditions: KPM1097; alone
# Excerpt: as §1
# KP1065 (VIM-1, SHV-11) = assay type: cell-based, Klebsiella pneumoniae; conditions: KP1065; alone
# Excerpt: as §1
# KPM1109 (NDM, KPC) = assay type: cell-based, Klebsiella pneumoniae; conditions: KPM1109; alone
# Excerpt: as §1
# KP1014 (Vim-1, TEM, SHV) = assay type: cell-based, Klebsiella pneumoniae; conditions: KP1014; alone
# Excerpt: as §1
# [7] = test system: KPM1347 (NDM-1 SHV CTX-M-15); assay type: cell-based, Klebsiella pneumoniae; conditions: KPM1347; alone
# Excerpt: as §1
# KP1064 (KPC TEM SHV) = assay type: cell-based, Klebsiella pneumoniae; conditions: KP1064; alone
# Excerpt: as §1
# KPM1099 (NDM, KPC) = assay type: cell-based, Klebsiella pneumoniae; conditions: KPM1099; alone
# Excerpt: as §1
# KP1061 (KPC TEM SHV) = assay type: cell-based, Klebsiella pneumoniae; conditions: KP1061; alone
# Excerpt: as §1
# KP1097 (IMP-1 SHV) = assay type: cell-based, Klebsiella pneumoniae; conditions: KP1097; alone
# Excerpt: as §1
# KP1070 (KPC TEM SHV) = assay type: cell-based, Klebsiella pneumoniae; conditions: KP1070; alone
# Excerpt: as §1
# KP1059 (VIM-1, SHV-11) = assay type: cell-based, Klebsiella pneumoniae; conditions: KP1059; alone
# Excerpt: as §1
# [8] = test system: EC1064 (NDM-1, CMY-6, CTX-M-15); assay type: cell-based, Escherichia coli; conditions: EC1064; alone
# Excerpt: as §1
# EC1068 (VIM-1) = assay type: cell-based, Escherichia coli; conditions: EC1068; alone
# Excerpt: as §1
# EC1065 (IMP-1 CMY-2) = assay type: cell-based, Escherichia coli; conditions: EC1065; alone
# Excerpt: as §1
# EC1061 (NDM-1, CMY-6) = assay type: cell-based, Escherichia coli; conditions: EC1061; alone
# Excerpt: as §1
smiles,measurement,setting,value
"C[C@@H](O)[C@H]1C(=O)N2C(C(=O)O)=C(S[C@@H]3CN[C@H](C(=O)N(C)C)C3)[C@H](C)[C@H]12 [Meropenem, reference compound]",Carbapenem MIC alone,"EA1019 (SHV-5, VIM-1)",Z (MIC of greater than 10 μg/mL)
same,Carbapenem MIC alone,[1],Z (MIC of greater than 10 μg/mL)
same,Carbapenem MIC alone,[2],Z (MIC of greater than 10 μg/mL)
same,Carbapenem MIC alone,"ECLM1018 (VIM, KPC)",Z (MIC of greater than 10 μg/mL)
same,Carbapenem MIC alone,ECL1082 (VIM-1),Y (MIC of 1 μg/mL to 10 μg/mL)
same,Carbapenem MIC alone,"ECLM1017 (VIM, KPC)",Z (MIC of greater than 10 μg/mL)
same,Carbapenem MIC alone,[3],Z (MIC of greater than 10 μg/mL)
same,Carbapenem MIC alone,ECL1045 (VIM-1),Y (MIC of 1 μg/mL to 10 μg/mL)
same,Carbapenem MIC alone,"ECLM1015 (NDM, KPC)",Z (MIC of greater than 10 μg/mL)
same,Carbapenem MIC alone,ECL1036 (KPC),Y (MIC of 1 μg/mL to 10 μg/mL)
same,Carbapenem MIC alone,"ECLM1019 (VIM, KPC)",Z (MIC of greater than 10 μg/mL)
same,Carbapenem MIC alone,"ECLM1014 (NDM, KPC)",Z (MIC of greater than 10 μg/mL)
same,Carbapenem MIC alone,ECL1026 (KPC),Y (MIC of 1 μg/mL to 10 μg/mL)
same,Carbapenem MIC alone,ECL1055 (KPC),Y (MIC of 1 μg/mL to 10 μg/mL)
same,Carbapenem MIC alone,"ECLM1013 (NDM, KPC)",Z (MIC of greater than 10 μg/mL)
same,Carbapenem MIC alone,"ECLM1016 (NDM, KPC)",Z (MIC of greater than 10 μg/mL)
same,Carbapenem MIC alone,"KPM1110 (NDM, KPC)",Z (MIC of greater than 10 μg/mL)
same,Carbapenem MIC alone,"KPM1108 (NDM, KPC)",Z (MIC of greater than 10 μg/mL)
same,Carbapenem MIC alone,"KPM1107 (NDM, KPC)",Z (MIC of greater than 10 μg/mL)
same,Carbapenem MIC alone,KPM1123 (KPC-2 TEM SHV),Z (MIC of greater than 10 μg/mL)
same,Carbapenem MIC alone,KPM1345 (VIM-1 SHV),Y (MIC of 1 μg/mL to 10 μg/mL)
same,Carbapenem MIC alone,"KPM1122 (NDM, VIM)",Z (MIC of greater than 10 μg/mL)
same,Carbapenem MIC alone,KP1098 (IMP-26 TEM SHV),Z (MIC of greater than 10 μg/mL)
same,Carbapenem MIC alone,"KP1054 (VIM-1, SHV-11)",Z (MIC of greater than 10 μg/mL)
same,Carbapenem MIC alone,[4],Z (MIC of greater than 10 μg/mL)
same,Carbapenem MIC alone,[5],Z (MIC of greater than 10 μg/mL)
same,Carbapenem MIC alone,KP1004 (KPC TEM SHV),Z (MIC of greater than 10 μg/mL)
same,Carbapenem MIC alone,KPM1344 (VIM-1),Z (MIC of greater than 10 μg/mL)
same,Carbapenem MIC alone,[6],Z (MIC of greater than 10 μg/mL)
same,Carbapenem MIC alone,"KPM1111 (NDM, KPC)",Z (MIC of greater than 10 μg/mL)
same,Carbapenem MIC alone,"KPM1097 (NDM, KPC)",Z (MIC of greater than 10 μg/mL)
same,Carbapenem MIC alone,"KP1065 (VIM-1, SHV-11)",Y (MIC of 1 μg/mL to 10 μg/mL)
same,Carbapenem MIC alone,"KPM1109 (NDM, KPC)",Z (MIC of greater than 10 μg/mL)
same,Carbapenem MIC alone,"KP1014 (Vim-1, TEM, SHV)",Z (MIC of greater than 10 μg/mL)
same,Carbapenem MIC alone,[7],Z (MIC of greater than 10 μg/mL)
same,Carbapenem MIC alone,KP1064 (KPC TEM SHV),Z (MIC of greater than 10 μg/mL)
same,Carbapenem MIC alone,"KPM1099 (NDM, KPC)",Z (MIC of greater than 10 μg/mL)
same,Carbapenem MIC alone,KP1061 (KPC TEM SHV),Y (MIC of 1 μg/mL to 10 μg/mL)
same,Carbapenem MIC alone,KP1097 (IMP-1 SHV),Z (MIC of greater than 10 μg/mL)
same,Carbapenem MIC alone,KP1070 (KPC TEM SHV),Z (MIC of greater than 10 μg/mL)
same,Carbapenem MIC alone,"KP1059 (VIM-1, SHV-11)",Z (MIC of greater than 10 μg/mL)
same,Carbapenem MIC alone,[8],Z (MIC of greater than 10 μg/mL)
same,Carbapenem MIC alone,EC1068 (VIM-1),Z (MIC of greater than 10 μg/mL)
same,Carbapenem MIC alone,EC1065 (IMP-1 CMY-2),Y (MIC of 1 μg/mL to 10 μg/mL)
same,Carbapenem MIC alone,"EC1061 (NDM-1, CMY-6)",Z (MIC of greater than 10 μg/mL)
